Laboratory results reported in the supplement of paper PMC13380429.

Key:
Details in all cases: 72 h
Vero E6 [1] = experiment: drug sensitivity score (DSS) for viability; higher = more toxic; extreme values may be limits of the assay
Calu-3 [2] = experiment: as above
HepG2 [3] = experiment: as above
U2OS [4] = experiment: as above
Caco-2 [5] = experiment: as above
Vero E6 [6] = experiment: cell viability relative to DMSO; higher = less toxic
Calu-3 [7] = experiment: as above
HepG2 [8] = experiment: as above
U2OS [9] = experiment: as above
Caco-2 [10] = experiment: as above
Vero E6 [11] = experiment: relative viability EC50 (midpoint between 100% and the lowest measured viability); higher = less toxic
Calu-3 [12] = experiment: as above
HepG2 [13] = experiment: as above
U2OS [14] = experiment: as above
Caco-2 [15] = experiment: as above

SMILES | drug sensitivity score (Vero E6 [1]) | drug sensitivity score (Calu-3 [2]) | drug sensitivity score (HepG2 [3]) | drug sensitivity score (U2OS [4]) | drug sensitivity score (Caco-2 [5]) | cell viability (Vero E6 [6]; 1 nM) | cell viability (Vero E6 [6]; 10 nM) | cell viability (Vero E6 [6]; 100 nM) | cell viability (Vero E6 [6]; 1000 nM) | cell viability (Vero E6 [6]; 10000 nM) | cell viability (Calu-3 [7]; 1 nM) | cell viability (Calu-3 [7]; 10 nM) | cell viability (Calu-3 [7]; 100 nM) | cell viability (Calu-3 [7]; 1000 nM) | cell viability (Calu-3 [7]; 10000 nM) | cell viability (HepG2 [8]; 1 nM) | cell viability (HepG2 [8]; 10 nM) | cell viability (HepG2 [8]; 100 nM) | cell viability (HepG2 [8]; 1000 nM) | cell viability (HepG2 [8]; 10000 nM) | cell viability (U2OS [9]; 1 nM) | cell viability (U2OS [9]; 10 nM) | cell viability (U2OS [9]; 100 nM) | cell viability (U2OS [9]; 1000 nM) | cell viability (U2OS [9]; 10000 nM) | cell viability (Caco-2 [10]; 1 nM) | cell viability (Caco-2 [10]; 10 nM) | cell viability (Caco-2 [10]; 100 nM) | cell viability (Caco-2 [10]; 1000 nM) | cell viability (Caco-2 [10]; 10000 nM) | relative viability EC50 (Vero E6 [11]) | relative viability EC50 (Calu-3 [12]) | relative viability EC50 (HepG2 [13]) | relative viability EC50 (U2OS [14]) | relative viability EC50 (Caco-2 [15])
O[C@H]1CC[C@H](Nc2nc(-c3ccccc3)nc3[nH]ccc23)CC1 [SLV-320] | 0 | 0 | 0 | 0 | 0 | 104% | 109% | 101% | 99% | 91.4% | 99.5% | 93.9% | 99.5% | 90.8% | 102% | 92.8% | 106% | 94.9% | 99.2% | 91.7% | 99.5% | 94.4% | 97.7% | 95.7% | 96.9% | 102% | 94.4% | 102% | 102% | 102% | > 10 µM | > 10 µM | > 10 µM | > 10 µM | > 10 µM
CC1(C)[C@@H](OC(=O)CCC(=O)O)CC[C@]2(C)[C@H]3C(=O)C=C4[C@@H]5C[C@@](C)(C(=O)O)CC[C@]5(C)CC[C@@]4(C)[C@]3(C)CC[C@@H]12 [CARBENOXOLONE SODIUM] | 0 | 0 | 0 | 0 | 0 | 100% | 49.3% | 101% | 59.6% | 99.2% | 88.9% | 102% | 92.8% | 106% | 96% | 97.8% | 98% | 113% | 96.6% | 91.2% | 107% | 99.8% | 101% | 103% | 104% | 94.4% | 96.6% | 92.3% | 99.1% | 99% | > 10 µM | > 10 µM | > 10 µM | > 10 µM | > 10 µM
CC(=O)N1CCC(C(=O)N(CCCN2CCC(Cc3ccc(C(N)=O)cc3)CC2)c2ccc(C)c(Cl)c2)CC1 [TAK-220] | 0 | 0 | 0 | 0 | 0 | 113% | 101% | 106% | 92.4% | 106% | 100% | 101% | 98.3% | 101% | 97.9% | 99.9% | 87.2% | 94.1% | 94.5% | 98.6% | 97.3% | 99.3% | 99.4% | 99.9% | 95.3% | 85.2% | 95.1% | 93.5% | 102% | 98.3% | > 10 µM | > 10 µM | > 10 µM | > 10 µM | > 10 µM
O=C(Nc1cnc(Cl)nc1)c1ccc(F)c(F)c1 | 0 | 0 | 0 | 0 | 0 | 94.5% | 92.1% | 99.4% | 96.9% | 95.4% | 98.5% | 98.9% | 90.7% | 95.5% | 103% | 96.5% | 96.9% | 97.7% | 96.5% | 93.3% | 102% | 95.1% | 95.6% | 98% | 98.9% | 101% | 96.7% | 95% | 95.5% | 93.8% | > 10 µM | > 10 µM | > 10 µM | > 10 µM | > 10 µM
O=C(O)C1CSCN1 (stereo not given) [timonacic] | 0 | 0 | 0 | 0 | 0 | 97% | 99.6% | 97.6% | 98.9% | 94.1% | 115% | 94.9% | 94.6% | 109% | 104% | 94.4% | 98.7% | 88.1% | 98.4% | 97.9% | 103% | 98.2% | 99.5% | 98.8% | 102% | 101% | 102% | 96.4% | 88.3% | 102% | > 10 µM | > 10 µM | > 10 µM | > 10 µM | > 10 µM
O=c1cc(N2CCOCC2)oc2c1ccc1ccccc12 [NU-7026] | 0.1 | 0.7 | 0.4 | 0 | 0.5 | 99% | 103% | 98.3% | 101% | 86.2% | 98.4% | 107% | 102% | 97.6% | 82.8% | 106% | 93.4% | 92.9% | 90.8% | 88% | 98.9% | 101% | 96.2% | 99.6% | 95.7% | 94.3% | 113% | 91% | 99.2% | 82.7% | > 10 µM | > 10 µM | > 10 µM | > 10 µM | > 10 µM
CC(NCCc1ccc(O)cc1)C(O)c1ccc(O)cc1 (stereo not given) [ritodrine] | 0 | 0 | 0 | 0 | 0 | 86.5% | 93.6% | 102% | 98.9% | 109% | 102% | 105% | 93.7% | 98.3% | 101% | 94.5% | 102% | 91.4% | 95.8% | 103% | 96.9% | 102% | 97% | 101% | 105% | 91.4% | 97.7% | 95.5% | 99.7% | 105% | > 10 µM | > 10 µM | > 10 µM | > 10 µM | > 10 µM
CCOC(=O)Nc1ccc(NCc2c(C)cc(C)cc2C)cc1N | 0 | 0 | 0 | 0 | 0 | 99.4% | 96.7% | 90.3% | 93.3% | 99.7% | 110% | 110% | 97.3% | 104% | 96.8% | 99.5% | 95.6% | 96.5% | 92.8% | 100% | 95.9% | 103% | 98.9% | 103% | 93.1% | 101% | 92.6% | 101% | 97.4% | 99% | > 10 µM | > 10 µM | > 10 µM | > 10 µM | > 10 µM
N[C@@H](CC(=O)N1CCn2c(nnc2C(F)(F)F)C1)Cc1cc(F)c(F)cc1F [sitagliptin] | 0 | 0 | 0 | 0 | 0.2 | 97.7% | 106% | 90.7% | 107% | 102% | 107% | 100% | 99.5% | 106% | 97.7% | 89.2% | 98.9% | 91.1% | 97.5% | 88.6% | 97.5% | 94.6% | 97.4% | 94.8% | 97.7% | 108% | 99.5% | 97.1% | 102% | 84.1% | > 10 µM | > 10 µM | > 10 µM | > 10 µM | > 10 µM
O=c1c(-c2ccc(O)cc2)coc2cc(O)cc(O)c12 [genistein] | 0 | 0.3 | 0.3 | 0 | 0 | 102% | 108% | 108% | 96.1% | 97.2% | 96.4% | 91.5% | 98.1% | 103% | 82.9% | 95.2% | 89.9% | 95.9% | 102% | 82.6% | 93.9% | 98.8% | 87.1% | 87% | 95.4% | 102% | 96.6% | 105% | 97% | 90.3% | > 10 µM | > 10 µM | > 10 µM | > 10 µM | > 10 µM
CC(=O)CCCCn1c(=O)c2c(ncn2C)n(C)c1=O [pentoxifylline] | 0 | 0 | 0 | 0 | 0 | 104% | 110% | 108% | 108% | 99.2% | 99.7% | 95% | 104% | 95.8% | 98.1% | 88.1% | 98.5% | 110% | 94.3% | 106% | 101% | 96.1% | 102% | 94.2% | 100% | 98.1% | 115% | 97% | 114% | 89.1% | > 10 µM | > 10 µM | > 10 µM | > 10 µM | > 10 µM
